Measured values as given in patent publication US11311546B2, “Method for enhancing wound healing by administrating adenine” (Energenesis Biomedical Co., Ltd., priority 2017, dated 2022).

Key:
[1] = test system: full-thickness excisional skin wounds of C57BL/6J mice; test: Excisional skin wound healing and scar formation; type: in vivo
Method: C57BL/6J mice were maintained at 22° C. under a 12-h light/dark cycle. The experiments were performed with 12-weeks old mice. After anesthetized by an intraperitoneal injection of ketamine ([…]) and xylazine (100 mg/kg), 6-mm full-thickness excisional skin wounds was made on the backs of mice using 6-mm skin biopsy punches. Immediately after wounding, 1 μM to 4000 μM of adenine in […] saline or saline alone was applied to the wound bed. The skin wounds were then covered by semipermeable transparent dressing and fixed to the skin. The mice were treated with adenine or vehicle for 14 days and then sacrificed. The scar formation was assessed by Masson's trichrome staining to observe the fibrosis process and the collagen framework of the healed wound (Fixed by 4% paraformaldehyde).

[2] = test system: diabetic wound of db/db mice; test: Diabetic wound healing, 0.02% adenine gel on splinted full thickness wound; type: in vivo; conditions: 0.02% adenine in a form of gel, once daily for 15 days
Method: The BKS. Cg-Dock7^m+/+Lepr^db/Jnarl (db/db) male mice at 8 weeks of age were purchased from the National Laboratory Animal Center (NLAC, R.O.C.). A total number of 10 mice with healthy and intact skin were used for the test for diabetic wound healing. The average±SEM body weight of the mice was 34.5±1.5 g. All mice had fasting blood glucose levels over 300 mg/dL.
The mice were housed individually in stainless steel cage, and were quarantined and acclimated for at least one week prior to test for diabetic wound healing. The temperature and relative humidity were in the range stipulated in the protocol at 21±2° C. and 55±10%, respectively. A 12-h/12-h light/dark cycle was maintained with light on at 7:00 AM and off at 7:00 PM.
The method for applying the composition containing 0.02% of adenine to the diabetic wound of mice was shown as follows. The mice described in Preparation example 4 were randomly divided into two groups of five animals each and then were anesthetized with isoflurane by use of an anesthesia system for rodents (Matrx™ VIP 3000 isoflurane vaporizer, Midmark). […]
(§1) Wounds of each mice were photographed everyday with standardized exposure and focal lengths using a digital camera (Lumix DMC-GF1, Panasonic), and wound areas were analyzed and calculated according to the analysis as described in Example 1.

[3] = test system: pressure ulcer wound of C57BL/6 mice; test: Pressure ulcer healing; type: in vivo; conditions: 1 to 4,000 μM adenine in normal saline
Method: The C57BL/6 mice approximately at 8 weeks of age were purchased from the National Laboratory Animal Center (NLAC, R.O.C.). The mice were anesthetized with isoflurane using anesthesia system for rodents (Matrx™ VIP 3000 isoflurane vaporizer, Midmark). Before wounding, the dorsal surface was shaved and sterilely prepped with 70% ethanol for surgery. Dorsal skin was positioned between 2 circular magnets having 12-mm diameter for 12 hours and removed from them for 12 hours for 1 ischemia-reperfusion cycle. Pressure ulcer was created by 2 ischemia-reperfusion cycles. The force generated between the 2 magnets was 0.183N for a 5-mm skin bridge between the 2 magnets.
After 2 ischemia-reperfusion cycles, the compositions containing 1 μM to 4,000 μM adenine in normal saline or only normal saline as Control were individually applied on the pressure ulcer wound of mice once daily for 14 days.
as §1

AMPK = AMPK activation assay (western blot of regenerated skin tissue); type: in vivo; conditions: db/db mice, 12 days post wounding
Method: Effects of adenine on AMPK activation were evaluated based on the phosphorylation of AMPK and Acetyl-CoA carboxylase (ACC) protein upon adenine treatment. The process of animal experiment was the same as Example 2, except that after 12 days post wounding, skin tissues of db/db mice were homogenized and subject to western blot analysis. Equal amount of proteins from each sample was separated by SDS-PAGE and then electroblotted on to PVDF membranes. Membranes were blocked with 3% BSA in PBS for 60 mins and incubated with an anti-phospho-AMPK (Thr172) antibody (1:2000, Cell Signaling), an anti-AMPK antibody (1:2000, Cell Signaling), an anti-ACC antibody (1:1000, Cell Signaling) or an anti-phospho-ACC antibody (1:1000, Cell Signaling) at 4° C. overnight followed by the corresponding secondary antibody for 1 h at room temperature (RT). Immunoreactive bands were detected by enhanced chemiluminescence (ECL; Pierce, Rockford, Ill., USA) and recorded using Kodak film (Rochester, N.Y., USA). The detected signals were scanned and then quantified using ImageJ software.

3T3 cells = test: Fibroblast (3T3) cell proliferation assay; type: cell-based, Human; conditions: 72 h; dose-dependent
Method: […] fibro blast cell line 3T3 were cultured in high-glucose Dulbecco's modified Eagle's medium (DMEM) containing 10% fetal bovine serum (FBS), 4 mM L-glutamine, 2 mM sodium pyruvate and 1% penicillin/streptomycin (Invitrogen GibeoBRL, Carlsbad, Calif., USA) at 37° C. under 5% CO2. For cell proliferation assay, 3T3 cells were plated at 1×10^5 per well (6-well plate). 24 h after plating, cells were treated with indicated concentration of adenine for 72 h and the number of viable cells was counted. Cells were detached using trypsin-EDTA solution and stained with trypan blue. The living cells were counted using hemocytometer. […] Data were presented as the mean±SEM of three independent experiments.

[4] = test system: scald burn wound of C57BL/6 mice; test: Scald burns healing; type: in vivo; conditions: 1 to 4,000 μM adenine in normal saline, once daily for 28 days
Method: The C57BL/6 mice approximately at 8 weeks of age were purchased from the National Laboratory Animal Center (NLAC, R.O.C.). The mice were deeply anesthetized by injecting intraperitoneally normal saline mixed with zoletil 50 and 2% rompun in a ratio of 2:1:1 (2 μl per gram of body weight). Each of the mice was shaved by depilatory cream. The shaved dorsal surface of each mice was sterilized with 70% ethanol and then the mice were placed in a restrainer with a 2×3 cm hole at the top. The dorsal surface of mice was exposed toward the hole of restrainer. The water at 60° C. was applied to the dorsal surface of mice for 40 seconds, followed by water at 4° C. for 45 seconds. The mice of Control group was only applied with water at 4° C. for 45 seconds. After scalding, each of the mice was then individually placed in a cage, and fed with diazepam in the drinking water (50 mg/L) for the early 7 days. The mice were monitored every day for body weight of and wound infections. […]
as §1

ATP = ATP assay in regenerated skin tissue; type: in vivo; conditions: db/db mice; 12 days post wounding; ATP colorimetric assay
Method: The process of animal experiment was the same as Example 2, except that after 12 days post wounding, skin tissues of db/db mice were homogenized and centrifuged for 10 mins with 8,000 rpm at 4° C. Supernatant from tissue lysate was filled up in the column and spun down at 1,000×g for 2 minutes. 10 μL of eluate was analyzed using ATP colorimetric assay kit (Biovision).

Nc1ncnc2nc[nH]c12 [Adenine, adenine]
scar width compared to vehicle treated wounds ([1]; 14 days post-wounding, topical treatment, histological examination): significantly decreased | extent of closure versus control mice ([1]; after 14 days of treatment, 1 μM to 4000 μM adenine in saline, dose-dependent): significantly greater | process of diabetic wound healing [2]: efficiently enhance the process of diabetic wound healing | process of healing of pressure ulcer wound ([3]; once daily for 14 days): efficiently enhance the process of healing of pressure ulcer wound | extent of closure versus control mice ([3]; after 14 day of treatment, dose-dependent): significantly greater | phosphorylation level of ACC in regenerated skin tissue (AMPK): efficiently enhance phosphorylation level | phosphorylation level of AMPK in regenerated skin tissue (AMPK): efficiently enhance phosphorylation level | 3T3 cell proliferation (3T3 cells): significantly inhibited | inflammatory response [4]: efficiently decrease inflammatory response | process of healing of scald burns wound [4]: enhance the process of healing of scald burns wound | ATP level in regenerated skin tissue (ATP): efficiently increase ATP level
